Measurements: patent EP1893597B1, “AMPA RECEPTOR POTENTIATORS” (ELI LILLY AND COMPANY, priority 2005, dated 2006)

Biological target: T1, human iGluR4 (Homo sapiens, UniProt P48058)
T1 construct: expressed in transfected cells; host or cells: HEK293
Assay: Whole-cell voltage clamp potentiation of currents evoked by 1 mM glutamate in HEK293 cells stably expressing human iGluR4
Type: cell-based
Conditions: HEK293 cells stably expressing human iGluR4, voltage-clamped at -60mV, concentration increased in half log units, fit to the Hill equation
Excerpt: HEK293 cells stably expressing human iGluR4 (obtained as described in European Patent Application Publication No. EP-A1-0583917) are used in the electrophysiological characterization of AMPA receptor potentiators. The extracellular recording solution contains (in mM): 140 NaCl, 5 KCl, 10 HEPES, 1 MgCl2, 2 CaCl2, 10 glucose, pH = 7.4 with NaOH, 295 mOsm kg-1. The intracellular recording solution contains (in mM): 140 CsCl, 1 MgCl2, 10 HEPES, (N-[2-hydroxyethyl]piperazine-N1-[2-ethanesulfonic acid]) 10 EGTA (ethylene-bis(oxyethylene-nitrilo)tetraacetic acid), pH = 7.2 with CsOH, 295 mOsm kg-1. With these solutions, recording pipettes have a resistance of 2-3 MΩ. […] Responses to 1 mM glutamate are then determined in the presence of test compound. […]
In order to determine the potency of test compounds, the concentration of the test compound, both in the bathing solution and co-applied with glutamate, is increased in half log units until the maximum effect was seen. […] Reversibility of test compound activity is determined by assessing control glutamate 1mM responses. Once the control responses to the glutamate challenge are re-established, the potentiation of these responses by 100 µM cyclothiazide is determined by its inclusion in both the bathing solution and the glutamate-containing solution. In this manner, the efficacy of the test compound relative to that of cyclothiazide can be determined.

T1 sequence (P48058 21-902): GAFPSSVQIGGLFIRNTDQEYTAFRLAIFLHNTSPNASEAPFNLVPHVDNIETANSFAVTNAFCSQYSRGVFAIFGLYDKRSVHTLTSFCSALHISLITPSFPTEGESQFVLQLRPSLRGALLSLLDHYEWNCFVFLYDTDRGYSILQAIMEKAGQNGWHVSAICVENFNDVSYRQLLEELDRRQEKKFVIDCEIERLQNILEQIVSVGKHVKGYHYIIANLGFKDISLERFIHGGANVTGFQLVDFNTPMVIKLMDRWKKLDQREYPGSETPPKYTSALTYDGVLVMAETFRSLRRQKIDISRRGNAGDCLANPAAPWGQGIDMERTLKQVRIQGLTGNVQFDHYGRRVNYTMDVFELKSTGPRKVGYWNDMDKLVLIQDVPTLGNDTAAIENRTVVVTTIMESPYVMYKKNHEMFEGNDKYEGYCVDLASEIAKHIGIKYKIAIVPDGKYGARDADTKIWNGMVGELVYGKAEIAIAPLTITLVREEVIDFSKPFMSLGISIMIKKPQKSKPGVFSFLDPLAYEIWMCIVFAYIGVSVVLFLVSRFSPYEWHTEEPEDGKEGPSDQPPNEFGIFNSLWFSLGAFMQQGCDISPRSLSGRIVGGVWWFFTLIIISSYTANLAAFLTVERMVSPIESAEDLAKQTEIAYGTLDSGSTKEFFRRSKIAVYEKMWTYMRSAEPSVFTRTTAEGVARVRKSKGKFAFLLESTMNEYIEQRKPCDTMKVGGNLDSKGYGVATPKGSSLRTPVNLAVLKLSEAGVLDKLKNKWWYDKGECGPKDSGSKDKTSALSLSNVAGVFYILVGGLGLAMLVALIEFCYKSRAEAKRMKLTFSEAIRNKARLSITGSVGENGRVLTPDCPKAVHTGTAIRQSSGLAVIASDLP

CC(C)S(=O)(=O)Nc1ccccc1-c1ccc(-c2ccc(-c3nnn[nH]3)cc2)cc1 [Example 77, Propane-2-sulfonic acid [4"-(1H-tetrazol-5-yl)-[1,1';4',1"]terphenyl-2-yl]-amide]
EC50: 445 nM
